# Target: human CB1 (Homo sapiens, UniProt P21554)
# Assay type: cell-based
# human CB1, sequence (P21554 whole entry): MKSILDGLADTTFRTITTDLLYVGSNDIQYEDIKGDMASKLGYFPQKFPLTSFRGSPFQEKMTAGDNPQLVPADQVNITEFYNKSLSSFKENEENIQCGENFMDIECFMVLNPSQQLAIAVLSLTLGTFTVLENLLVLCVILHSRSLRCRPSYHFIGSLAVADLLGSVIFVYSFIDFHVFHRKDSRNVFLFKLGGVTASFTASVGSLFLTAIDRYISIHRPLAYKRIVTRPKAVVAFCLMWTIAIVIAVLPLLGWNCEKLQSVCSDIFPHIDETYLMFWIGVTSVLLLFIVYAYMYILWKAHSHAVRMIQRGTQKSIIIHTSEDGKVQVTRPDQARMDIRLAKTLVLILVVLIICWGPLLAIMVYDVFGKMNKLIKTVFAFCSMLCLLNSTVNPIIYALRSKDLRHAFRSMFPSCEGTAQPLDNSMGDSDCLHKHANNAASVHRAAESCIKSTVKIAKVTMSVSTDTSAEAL
smiles,measurement,value
CCCCCCC(C)(C)c1ccc([C@@H]2C[C@H](O)CC[C@H]2CCCO)c(O)c1 [CP55940],CB1 potency measured in agonist mode,0.017 µM

# — article PMC9763054 (Nature, 2021)
